# Results published in ChEMBL document CHEMBL1201862, “PubChem BioAssay data set” (2004).
#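 The compound was tested at five concentrations on cells cultured in 96-well plates, with a 48-hour exposure period. Abbreviation: GI50, concentration required for 50% inhibition of growth.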 Activity calls are given as the source filed them. Rule as the data show it: active = GI50 up to about 1.1 µM and inactive = higher.
# Columns and labels:
# Assay in all cases: DTP human tumour cell line panel, 48 h
# SNB-75 = system: SNB-75
# SK-OV-3 = system: SK-OV-3
# SF-268 = system: SF-268
# MDA-MB-435 = system: MDA-MB-435
# UO-31 = system: UO-31
# OVCAR-8 = system: OVCAR-8
# UACC-62 = system: UACC-62
# NCI-H522 = system: NCI-H522
# NCI/ADR-RES = system: NCI/ADR-RES
# K562 = system: K562
# NCI-H23 = system: NCI-H23
# OVCAR-3 = system: OVCAR-3
# ACHN = system: ACHN
# SK-MEL-5 = system: SK-MEL-5
# RXF 393 = system: RXF 393
# MDA-MB-231 = system: MDA-MB-231
# A549 = system: A549
# 786-0 = system: 786-0
# SW-620 = system: SW-620
# OVCAR-5 = system: OVCAR-5
# COLO 205 = system: COLO 205
# MCF7 = system: MCF7
# SN12C = system: SN12C
# MDA-N = system: MDA-N
# TK-10 = system: TK-10
# EKVX = system: EKVX
# HOP-62 = system: HOP-62
# SR = system: SR
# SK-MEL-28 = system: SK-MEL-28
# SK-MEL-2 = system: SK-MEL-2
# CAKI-1 = system: CAKI-1
# SNB-19 = system: SNB-19
# HT-29 = system: HT-29
# RPMI-8226 = system: RPMI-8226
# CCRF-CEM = system: CCRF-CEM
# PC-3 = system: PC-3
# Malme-3M = system: Malme-3M
# SF-295 = system: SF-295
# A498 = system: A498
# Hs-578T = system: Hs-578T
# HCT-116 = system: HCT-116
# SF-539 = system: SF-539
# MOLT-4 = system: MOLT-4
# UACC-257 = system: UACC-257
# KM12 = system: KM12
# T47D = system: T47D
# U-251 = system: U-251
# IGROV-1 = system: IGROV-1
# HOP-92 = system: HOP-92
# NCI-H460 = system: NCI-H460
# BT-549 = system: BT-549
# DU-145 = system: DU-145
# NCI-H226 = system: NCI-H226
# HCT-15 = system: HCT-15
# HCC 2998 = system: HCC 2998
# M14 = system: M14
# HL-60 = system: HL-60
# OVCAR-4 = system: OVCAR-4
# LOX IMVI = system: LOX IMVI
structure (smiles),measurement,setting,value
Ic1ccc2c(c1)N(c1ccccc1)c1cc([N-]c3ccc4nc5ccc(I)cc5[n+](-c5ccccc5)c4c3)ccc1N2,GI50,SNB-75,> 100 µM (inactive)
same,GI50,SK-OV-3,> 100 µM (inactive)
same,GI50,SF-268,> 100 µM (inactive)
same,GI50,MDA-MB-435,31.4 µM (inactive)
same,GI50,UO-31,> 100 µM (inactive)
same,GI50,OVCAR-8,> 100 µM (inactive)
same,GI50,UACC-62,69.3 µM (inactive)
same,GI50,NCI-H522,22.8 µM (inactive)
same,GI50,NCI/ADR-RES,> 100 µM (inactive)
same,GI50,K562,35 µM (inactive)
same,GI50,NCI-H23,41.3 µM (inactive)
same,GI50,OVCAR-3,2.92 µM (inactive)
same,GI50,ACHN,> 100 µM (inactive)
same,GI50,SK-MEL-5,33.4 µM (inactive)
same,GI50,RXF 393,> 100 µM (inactive)
same,GI50,MDA-MB-231,23.7 µM (inactive)
same,GI50,A549,> 100 µM (inactive)
same,GI50,786-0,> 100 µM (inactive)
same,GI50,SW-620,51.9 µM (inactive)
same,GI50,OVCAR-5,> 100 µM (inactive)
same,GI50,COLO 205,16.2 µM (inactive)
same,GI50,MCF7,26.4 µM (inactive)
same,GI50,SN12C,> 100 µM (inactive)
same,GI50,MDA-N,37.6 µM (inactive)
same,GI50,TK-10,> 100 µM (inactive)
same,GI50,EKVX,32.2 µM (inactive)
same,GI50,HOP-62,41.3 µM (inactive)
same,GI50,SR,32.6 µM (inactive)
same,GI50,SK-MEL-28,> 100 µM (inactive)
same,GI50,SK-MEL-2,> 100 µM (inactive)
same,GI50,CAKI-1,> 100 µM (inactive)
same,GI50,SNB-19,> 100 µM (inactive)
same,GI50,HT-29,14.8 µM (inactive)
same,GI50,RPMI-8226,32.1 µM (inactive)
same,GI50,CCRF-CEM,15 µM (inactive)
same,GI50,PC-3,55.7 µM (inactive)
same,GI50,Malme-3M,38 µM (inactive)
same,GI50,SF-295,> 100 µM (inactive)
same,GI50,A498,> 100 µM (inactive)
same,GI50,Hs-578T,> 100 µM (inactive)
same,GI50,HCT-116,35 µM (inactive)
same,GI50,SF-539,> 100 µM (inactive)
same,GI50,MOLT-4,68.9 µM (inactive)
same,GI50,UACC-257,31.3 µM (inactive)
same,GI50,KM12,44.2 µM (inactive)
same,GI50,T47D,61.7 µM (inactive)
same,GI50,U-251,45.6 µM (inactive)
same,GI50,IGROV-1,43.8 µM (inactive)
same,GI50,HOP-92,> 100 µM (inactive)
same,GI50,NCI-H460,42 µM (inactive)
same,GI50,BT-549,> 100 µM (inactive)
same,GI50,DU-145,> 100 µM (inactive)
same,GI50,NCI-H226,> 100 µM (inactive)
same,GI50,HCT-15,> 100 µM
same,GI50,HCC 2998,67.1 µM (inactive)
same,GI50,M14,26.9 µM (inactive)
same,GI50,HL-60,17.9 µM (inactive)
same,GI50,OVCAR-4,> 100 µM (inactive)
OC(NN=C1CCCC1)(C(F)(F)Cl)C(F)(F)Cl,GI50,SNB-75,> 10 µM (inactive)
same,GI50,SK-OV-3,> 10 µM (inactive)
same,GI50,SF-268,> 10 µM (inactive)
same,GI50,MDA-MB-435,> 10 µM (inactive)
same,GI50,OVCAR-8,> 10 µM (inactive)
same,GI50,UACC-62,> 10 µM (inactive)
same,GI50,NCI-H522,> 10 µM (inactive)
same,GI50,NCI/ADR-RES,> 10 µM (inactive)
same,GI50,K562,> 10 µM (inactive)
same,GI50,NCI-H23,> 10 µM (inactive)
same,GI50,OVCAR-3,> 10 µM (inactive)
same,GI50,ACHN,> 10 µM (inactive)
same,GI50,SK-MEL-5,> 10 µM (inactive)
same,GI50,RXF 393,> 10 µM (inactive)
same,GI50,MDA-MB-231,> 10 µM (inactive)
same,GI50,A549,> 10 µM (inactive)
same,GI50,786-0,> 10 µM (inactive)
same,GI50,SW-620,> 10 µM (inactive)
same,GI50,OVCAR-5,> 10 µM (inactive)
same,GI50,COLO 205,> 10 µM (inactive)
same,GI50,MCF7,> 10 µM (inactive)
same,GI50,SN12C,> 10 µM (inactive)
same,GI50,MDA-N,> 10 µM (inactive)
same,GI50,TK-10,> 10 µM (inactive)
same,GI50,EKVX,> 10 µM (inactive)
same,GI50,HOP-62,> 10 µM (inactive)
same,GI50,SR,> 10 µM (inactive)
same,GI50,SK-MEL-28,> 10 µM (inactive)
same,GI50,SK-MEL-2,> 10 µM (inactive)
same,GI50,CAKI-1,> 10 µM (inactive)
same,GI50,LOX IMVI,> 10 µM (inactive)
same,GI50,SNB-19,> 10 µM (inactive)
same,GI50,HT-29,> 10 µM (inactive)
same,GI50,RPMI-8226,> 10 µM (inactive)
same,GI50,CCRF-CEM,> 10 µM (inactive)
same,GI50,PC-3,> 10 µM (inactive)
same,GI50,Malme-3M,> 10 µM (inactive)
same,GI50,SF-295,> 10 µM (inactive)
same,GI50,A498,> 10 µM (inactive)
same,GI50,Hs-578T,> 10 µM (inactive)
same,GI50,HCT-116,> 10 µM (inactive)
same,GI50,SF-539,> 10 µM (inactive)
same,GI50,MOLT-4,> 10 µM (inactive)
same,GI50,UACC-257,> 10 µM (inactive)
same,GI50,KM12,> 10 µM (inactive)
same,GI50,T47D,> 10 µM (inactive)
same,GI50,U-251,> 10 µM (inactive)
same,GI50,IGROV-1,> 10 µM (inactive)
same,GI50,HOP-92,> 10 µM (inactive)
same,GI50,NCI-H460,> 10 µM (inactive)
same,GI50,BT-549,> 10 µM (inactive)
same,GI50,DU-145,> 10 µM (inactive)
same,GI50,NCI-H226,> 10 µM (inactive)
same,GI50,HCT-15,> 10 µM
same,GI50,HCC 2998,> 10 µM (inactive)
same,GI50,M14,> 10 µM (inactive)
same,GI50,HL-60,> 10 µM (inactive)
same,GI50,OVCAR-4,> 10 µM (inactive)
